According to US7985594B2, “Biradical polarizing agents for dynamic nuclear polarization” (Massachusetts Institute of Technology, priority 2006, dated 2011):

How the values were obtained:
[1] = DNP enhanced 13C-CPMAS NMR experiments (1H polarization enhancement by microwave irradiation); details: 5 mM TOTAPOL, 2 M 13C-urea in d6-DMSO/D2O/H2O, 90 K, 5 T
Description: Solutions for the DNP/NMR experiments—2 M ^13C-urea or 0.15 M U—^13C—^15N-proline—were prepared in d6-DMSO/D2O/H2O (60:34:6 w/w) or d8-glycerol/D2O/H2O (60:32:8 w/w), and doped with 5 mM TOTAPOL (10 mM electron spins). The reduced ^1H concentration was required to optimize the signal enhancements. DNP experiments using TOTAPOL as a polarizing agent were performed on a custom designed DNP/NMR spectrometer and triple-resonance (e^−, ^1H and ^13C/^15N) cryogenic (90 K) MAS probe^31 operating at 5 T (140 GHz EPR and 211 MHz ^1H NMR). The enhanced ^1H polarization developed by the microwave irradiation was detected indirectly via observation of the cross-polarized (CP) ^13C signals. The 140 GHz microwaves were generated by a gyrotron, a vacuum electron device capable of producing high power (>10 W) millimeter waves^26. In certain embodiments, sapphire, rather than zirconia, rotors are preferred for the DNP experiments since they transmit microwaves with ˜30% less attenuation. […]
The ^1H polarization is initially saturated by a series of 90° pulses followed by a delay of 3 T2. […] Note that the error for the enhancement factor is determined primarily by the uncertainty in measuring the intensity of the un-enhanced NMR signal.

[2] = Solubility in aqueous media; type: physicochemical
Excerpt: (§1) In contrast, BT2E is insoluble in all of these media.

[3] = Stability in glycerol/water; type: physicochemical; details: glycerol/water (6:4 w/w) at −10 °C for months
Excerpt: as §1

- solubility in 200 mM salt ([2]; 200 mM salt, solvent conditions common for protein samples): soluble in 200 mM salt
- solubility in water ([2]; water): soluble in water
- stability in glycerol/water [3]: stable
Substance: 1-(2,2,6,6-tetramethyl-1-oxy-4-piperidinyl)oxy-3-(2,2,6,6-tetramethyl-1-oxy-4-piperidinyl)amino-propan-2-ol [TOTAPOL]
- time constant for growth of the enhanced signal (microwaves on) [1]: ~5.5 s
